Columns and labels:
[1] = tested on: P-388 (suspension culture of a lymphoid neoplasm from DBA/2 mouse); assay: in vitro cytotoxic assay, P-388 cells; format: cell-based; details: P388, 72 h, three days of incubation, approximate IC50 by growth vs control wells
Protocol: (§1) Cells were maintained in logarithmic phase of growth in Eagle's Minimum Essential Medium, with Earle's Balanced Salts, with 2.0 mM L-glutamine, with non-essential amino acids, without sodium bicarbonate EMEM/neaa); supplemented with 10% Fetal Calf Serum (FCS), 10^−2 M sodium bicarbonate and 0.1 g/l penicillin-G+streptomycin sulfate.
(§2) A screening procedure has been carried out to determine and compare the antitumor activity of these compounds, using an adapted form of the method described by Bergeron et al. (Reference 5). The antitumor cells employed were P-388 (suspension culture of a lymphoid neoplasm from DBA/2 mouse), A-549 (monolayer culture of a human lung carcinoma), HT-29 (monolayer culture of a human colon carcinoma) and MEL-28 (monolayer culture of a human melanoma).
(§3) P-139 cells were seeded into 16 mm wells at 1×10^4 sells per well in 1 ml aliquots of MEM SFCS containing the indicated concentration of drug. A separate set of cultures without drug was seeded as control growth to ensure that cells remained in exponential phase of growth. All determinations were carried out in duplicate. After three days of incubation at 37° C., 10% CO2 in a 98% humid atmosphere, an approximately IC50 was determined by comparing the growth in wells with drug to the growth in wells control.

[2] = tested on: MEL-28 (monolayer culture of a human melanoma); assay: in vitro cytotoxic assay, MEL-28 cells; format: cell-based; details: SK-MEL-28, 72 h, three days of incubation, Crystal Violet staining, approximate IC50
Protocol: as §1, §2
as §3, with “A-549, HT-29 and MEL-28” for “P-139”, “2×10^4 cells” for “1×10^4 sells”, “10FCS” for “SFCS”, “the wells were stained with 0.1% Crystal Violet. An” for “an”

[3] = tested on: solid tumors like A-549, HT-29 and MEL-28; assay: in vitro antitumor selectivity across the cytotoxicity panel; format: cell-based, human; details: solid tumor lines A-549, HT-29, MEL-28 compared with P-388
Protocol: as §2, §3
A-549, HT-29 and MEL-28 cells were seeded into 16 mm wells at 2×10^4 cells per well in 1 ml aliquots of MEM 10FCS containing the indicated concentration of drug. A separate set of cultures without drug was seeded as control growth to ensure that cells remained in exponential phase of growth. […] An approximately IC50 was determined by comparing the growth in wells with drug to the growth in wells control.

[4] = tested on: A-549 (monolayer culture of a human lung carcinoma); assay: in vitro cytotoxic assay, A-549 cells; format: cell-based; details: A549, 72 h, three days of incubation, Crystal Violet staining, approximate IC50
Protocol: as §1, §2
as §3, with “A-549, HT-29 and MEL-28” for “P-139”, “2×10^4 cells” for “1×10^4 sells”, “10FCS” for “SFCS”, “the wells were stained with 0.1% Crystal Violet. An” for “an”

[5] = tested on: HT-29 (monolayer culture of a human colon carcinoma); assay: in vitro cytotoxic assay, HT-29 cells; format: cell-based; details: 72 h, three days of incubation, Crystal Violet staining, approximate IC50
Protocol: as §1, §2
as §3, with “A-549, HT-29 and MEL-28” for “P-139”, “2×10^4 cells” for “1×10^4 sells”, “10FCS” for “SFCS”, “the wells were stained with 0.1% Crystal Violet. An” for “an”

For `COC(CC1OC(=O)CC(OC(N)=O)CC(C)CC(O)C(C)C(OC)c2coc(n2)-c2coc(n2)-c2coc(n2)/C=C/CC(OC)C1C)C(C)CCC(=O)C(C)C(OC)C(C)CC=O` (centres unmarked) [TH-2], the IC50 [1] was 11 nM, the IC50 [2] was 2 nM and the “in vitro antitumor selectivity for solid tumors” value [3] was “in vitro antitumor selectivity for solid timors”. The IC50 [4] was 2 nM and the IC50 [5] was 2 nM.
